Results on five compounds are retold here after US20250221964A1, “Substituted Isoxazoles as Selective Nav1.7 Inhibitors for Pain Treatment and Method of Pain Treatment” (Board of Regents, The University of Texas System, priority 2021, published 2025).

SMILES strings stand for the structures. Where two headings read alike, the source gives them in different places.

One series addresses hNav1.7 (Homo sapiens, UniProt Q15858). Kind of series: Nav1.7 in vitro inhibition assay. Type of series: cell-based. The note with it: for subtype selectivity (Nav1.7 vs. Nav1.5): in words.
Another series has as its target hNav1.5 (Homo sapiens, UniProt Q14524). Kind of series: Nav1.5 in vitro inhibition assay. The conditions noted are these: in vitro testing. Type of series: cell-based.
Series [1] relates to mouse automated formalin model. Description: mouse automated formalin test. The conditions noted are these: 135 mg/kg p.o. Type of series: in vivo. How it is done:
(§1) Compound 100 was administered using the mouse automated formalin model at a dosage of 135 mg/kg p.o. Dosage was selected based upon projection from mouse exposure at 5 mg/kg.

Series [2] in a line: ADME assays (solubility, CYP inhibition, in vitro metabolism). The conditions noted are these: in words.
A short description of series [3]: mouse exposure / pharmacokinetics in formalin study (plasma, brain). The class given is in vivo. The note with it: for concentration at 0.25 hr: pre-tx time 0.25 hr, unbound. How it is done:
as §1

For series [4], the system named is muscarinic receptors in the rat cerebral cortex. The conditions noted are these: cited from earlier work.
The mark [5] stands for this setting: in vitro testing, read-out: potency against Nav1.7.
[6] abbreviates: 135 mg/kg p.o., 0.25 hr, versus FI IC50.
Setting [7] is: 135 mg/kg p.o., 0.25 hr, versus SI IC50.

Chain of hNav1.7 (Q15858 whole entry): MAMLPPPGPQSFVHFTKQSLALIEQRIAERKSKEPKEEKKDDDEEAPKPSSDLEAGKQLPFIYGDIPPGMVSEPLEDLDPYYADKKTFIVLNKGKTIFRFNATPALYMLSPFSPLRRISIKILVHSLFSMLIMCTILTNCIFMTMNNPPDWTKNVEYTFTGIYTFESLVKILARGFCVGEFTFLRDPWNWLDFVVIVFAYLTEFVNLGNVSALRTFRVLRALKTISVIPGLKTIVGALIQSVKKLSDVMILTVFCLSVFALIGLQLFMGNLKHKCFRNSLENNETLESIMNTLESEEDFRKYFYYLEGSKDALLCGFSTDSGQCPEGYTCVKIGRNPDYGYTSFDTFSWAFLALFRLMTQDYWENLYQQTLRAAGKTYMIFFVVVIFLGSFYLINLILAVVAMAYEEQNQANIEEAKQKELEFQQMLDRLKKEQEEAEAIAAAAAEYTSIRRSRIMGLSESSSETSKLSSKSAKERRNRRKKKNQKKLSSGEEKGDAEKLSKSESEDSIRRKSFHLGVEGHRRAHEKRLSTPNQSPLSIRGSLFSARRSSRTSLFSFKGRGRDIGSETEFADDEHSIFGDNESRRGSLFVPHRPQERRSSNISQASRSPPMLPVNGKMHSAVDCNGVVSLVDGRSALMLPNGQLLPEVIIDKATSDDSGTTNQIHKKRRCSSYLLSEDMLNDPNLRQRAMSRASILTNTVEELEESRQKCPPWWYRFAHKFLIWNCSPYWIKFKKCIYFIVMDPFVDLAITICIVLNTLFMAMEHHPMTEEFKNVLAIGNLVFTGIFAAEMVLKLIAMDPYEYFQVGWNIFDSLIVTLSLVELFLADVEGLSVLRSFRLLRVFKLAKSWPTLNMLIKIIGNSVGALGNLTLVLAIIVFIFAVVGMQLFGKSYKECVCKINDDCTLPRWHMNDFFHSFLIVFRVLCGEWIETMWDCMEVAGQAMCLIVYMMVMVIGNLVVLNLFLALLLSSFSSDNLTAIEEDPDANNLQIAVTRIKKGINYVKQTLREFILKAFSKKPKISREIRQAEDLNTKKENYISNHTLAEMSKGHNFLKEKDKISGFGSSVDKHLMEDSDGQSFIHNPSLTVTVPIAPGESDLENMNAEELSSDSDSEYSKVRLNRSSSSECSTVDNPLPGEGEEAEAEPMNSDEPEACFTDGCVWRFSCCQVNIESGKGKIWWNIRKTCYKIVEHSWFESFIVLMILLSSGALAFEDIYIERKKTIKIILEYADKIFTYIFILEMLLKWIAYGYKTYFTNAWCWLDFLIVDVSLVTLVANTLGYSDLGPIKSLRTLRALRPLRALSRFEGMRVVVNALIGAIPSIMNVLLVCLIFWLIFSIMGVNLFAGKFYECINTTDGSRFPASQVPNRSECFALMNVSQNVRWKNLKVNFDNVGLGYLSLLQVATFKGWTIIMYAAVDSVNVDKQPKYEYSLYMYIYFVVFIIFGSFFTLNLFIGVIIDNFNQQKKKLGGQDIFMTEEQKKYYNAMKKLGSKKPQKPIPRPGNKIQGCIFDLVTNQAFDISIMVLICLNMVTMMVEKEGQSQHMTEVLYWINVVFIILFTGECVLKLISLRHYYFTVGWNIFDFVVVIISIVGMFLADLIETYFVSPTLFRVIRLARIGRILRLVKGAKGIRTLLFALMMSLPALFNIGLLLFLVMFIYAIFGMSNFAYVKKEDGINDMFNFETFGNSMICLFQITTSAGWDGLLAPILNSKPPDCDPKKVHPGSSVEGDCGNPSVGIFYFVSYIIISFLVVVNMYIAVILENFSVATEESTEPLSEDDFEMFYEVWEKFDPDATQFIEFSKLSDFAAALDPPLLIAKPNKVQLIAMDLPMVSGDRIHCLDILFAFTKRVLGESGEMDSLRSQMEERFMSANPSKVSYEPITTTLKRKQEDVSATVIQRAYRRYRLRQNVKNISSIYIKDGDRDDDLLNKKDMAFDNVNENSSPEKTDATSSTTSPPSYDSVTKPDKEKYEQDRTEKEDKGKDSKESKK
Chain of hNav1.5 (Q14524 whole entry): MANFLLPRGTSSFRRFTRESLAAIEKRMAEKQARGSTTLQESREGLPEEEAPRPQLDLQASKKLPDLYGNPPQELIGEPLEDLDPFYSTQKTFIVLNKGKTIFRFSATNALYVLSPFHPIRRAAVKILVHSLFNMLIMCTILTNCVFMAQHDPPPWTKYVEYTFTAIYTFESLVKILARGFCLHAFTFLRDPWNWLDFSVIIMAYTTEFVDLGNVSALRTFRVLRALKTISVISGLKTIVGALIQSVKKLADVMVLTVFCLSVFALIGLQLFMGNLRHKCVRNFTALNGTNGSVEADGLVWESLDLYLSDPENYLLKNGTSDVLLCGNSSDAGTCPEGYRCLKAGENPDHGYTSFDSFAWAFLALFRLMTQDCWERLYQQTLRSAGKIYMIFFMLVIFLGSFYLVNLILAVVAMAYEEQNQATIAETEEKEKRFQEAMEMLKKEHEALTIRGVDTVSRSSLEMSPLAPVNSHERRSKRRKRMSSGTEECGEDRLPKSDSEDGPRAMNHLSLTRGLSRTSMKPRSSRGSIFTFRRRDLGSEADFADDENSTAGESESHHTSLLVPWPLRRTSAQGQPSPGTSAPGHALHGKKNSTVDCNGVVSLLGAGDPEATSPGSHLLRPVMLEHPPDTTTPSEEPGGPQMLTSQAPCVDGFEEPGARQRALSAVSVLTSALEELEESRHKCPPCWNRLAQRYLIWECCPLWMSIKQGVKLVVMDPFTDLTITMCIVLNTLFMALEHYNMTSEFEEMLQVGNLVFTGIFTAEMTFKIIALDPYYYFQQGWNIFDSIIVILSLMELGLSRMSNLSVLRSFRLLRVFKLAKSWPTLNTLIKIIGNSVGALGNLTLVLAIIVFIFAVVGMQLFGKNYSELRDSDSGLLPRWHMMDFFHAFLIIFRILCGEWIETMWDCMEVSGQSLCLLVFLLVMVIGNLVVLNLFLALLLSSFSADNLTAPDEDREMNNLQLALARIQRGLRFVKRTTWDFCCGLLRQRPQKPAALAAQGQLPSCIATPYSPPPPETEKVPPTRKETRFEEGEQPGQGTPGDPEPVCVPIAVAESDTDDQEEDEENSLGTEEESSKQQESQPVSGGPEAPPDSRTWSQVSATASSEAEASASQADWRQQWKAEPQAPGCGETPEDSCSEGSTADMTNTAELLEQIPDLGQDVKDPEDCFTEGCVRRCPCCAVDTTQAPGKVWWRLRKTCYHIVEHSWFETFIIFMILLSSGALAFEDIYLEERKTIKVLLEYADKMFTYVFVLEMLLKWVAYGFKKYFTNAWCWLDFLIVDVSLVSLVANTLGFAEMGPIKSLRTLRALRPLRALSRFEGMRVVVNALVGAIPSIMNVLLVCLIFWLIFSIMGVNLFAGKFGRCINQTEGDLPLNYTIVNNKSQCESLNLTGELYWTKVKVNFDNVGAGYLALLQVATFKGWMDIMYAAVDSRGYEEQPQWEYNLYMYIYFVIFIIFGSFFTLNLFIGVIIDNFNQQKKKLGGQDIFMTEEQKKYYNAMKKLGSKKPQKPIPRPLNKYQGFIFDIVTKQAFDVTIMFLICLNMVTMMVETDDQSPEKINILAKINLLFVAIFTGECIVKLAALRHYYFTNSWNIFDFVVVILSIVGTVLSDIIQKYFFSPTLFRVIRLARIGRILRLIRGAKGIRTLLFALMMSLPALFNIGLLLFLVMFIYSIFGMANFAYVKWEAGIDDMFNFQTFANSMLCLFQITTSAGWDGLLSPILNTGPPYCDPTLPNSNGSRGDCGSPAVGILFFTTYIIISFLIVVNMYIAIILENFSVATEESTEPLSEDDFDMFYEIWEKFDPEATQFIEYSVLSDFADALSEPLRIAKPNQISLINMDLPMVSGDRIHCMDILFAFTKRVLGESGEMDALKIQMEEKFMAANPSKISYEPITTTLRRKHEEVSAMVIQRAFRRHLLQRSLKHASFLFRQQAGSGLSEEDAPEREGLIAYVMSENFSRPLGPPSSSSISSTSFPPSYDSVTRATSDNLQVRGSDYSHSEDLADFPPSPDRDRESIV

As for `CN(CCCC(C)(C)CO)C(=O)c1cc(-c2ccccc2)on1` [Compound 119], at hNav1.7, the “subtype selectivity (Nav1.7 vs. Nav1.5)” value is on record as “improved”.

The Tmax is the time from dosing to the highest level. For orientation: half-life means the time needed for the level to fall by half in the phase considered. Low values mean rapid decline, high ones slow decline. `CC(C)(CO)CCCNC(=O)c1cc(-c2ccccc2)on1` [Compound 100]: at hNav1.7 (FI, read-out: h1.7 IC50 (FI)), the IC50 was 2020 nM. Also, the IC50 on hNav1.7 (setting [5]) is 570 nM. The “subtype selectivity (Nav1.7 vs. Nav1.5)” value at hNav1.7 is given as “poor selectivity”. In addition, the IC50 at hNav1.5 (read-out: Nav1.5 potency) amounted to 1900 nM. Also, the “reduction in late-phase pain-induced reactions” value in series [1] stood at 31.4%. The “Percent Reversal in Late Phase Formalin” value in series [1] (pre-tx time 0.25 hr) is reported as 31.4 ± 5.1%. Besides, in series [2], the “compound profiling in ADME assays” value is reported as “promising”. Also, in series [3] (setting [6]), the “Brain TER (FI)” value is reported as 0.2 (FI) and the “Plasma TER (FI)” value was 0.1 (FI). For the same compound, in series [3] (setting [7]), the “Brain TER (SI)” value was 1.8 (SI) and the “Plasma TER (SI)” value is listed as 1.2 (SI). Further, the concentration at 0.25 hr in series [3] (brain, po, mouse, 135 mg/kg p.o., read-out: Mean Brain, u) was found to be 414 nM. Further, in series [3] (in vivo, po, mouse), the Tmax is 15 min and the half-life is 66 min. The concentration at 0.25 hr in series [3] (plasma, po, mouse, 135 mg/kg p.o., read-out: Mean plasma, u) is 282 nM.

For `Cc1scc2c1N(C(=O)CN1CCN(C)CC1)c1ccccc1NC2=O` [(−)-isomer, telenzepine], the “fold less active than the (+)-isomer” value in series [4] is 500 ×.

For the compound `CC(C)(CO)CCCNC(=O)c1noc(-c2ccccc2)c1-c1ccccc1` [Compound 106], the IC50 stood at 60 nM on hNav1.7 (setting [5]) and 180 nM on hNav1.5 (read-out: Nav1.5 IC50). Besides, the “subtype selectivity (Nav1.7 vs. Nav1.5)” value at hNav1.7 is listed as “remained poor”.

Regarding `Cc1ccc(F)cc1-c1c(C(=O)NCCCC(C)(C)CO)noc1-c1ccccc1` [Compound 130], the “subtype selectivity (Nav1.7 vs. Nav1.5)” value at hNav1.7 is “improved”.
